Molecular target: yeast Hsc70 (Ssa1p) (Saccharomyces cerevisiae, UniProt P10591)
Test: single-turnover […]ATP ATPase assay with J-domain co-chaperone
Assay type: biochemical

Chain of yeast Hsc70 (Ssa1p) (P10591 2-642): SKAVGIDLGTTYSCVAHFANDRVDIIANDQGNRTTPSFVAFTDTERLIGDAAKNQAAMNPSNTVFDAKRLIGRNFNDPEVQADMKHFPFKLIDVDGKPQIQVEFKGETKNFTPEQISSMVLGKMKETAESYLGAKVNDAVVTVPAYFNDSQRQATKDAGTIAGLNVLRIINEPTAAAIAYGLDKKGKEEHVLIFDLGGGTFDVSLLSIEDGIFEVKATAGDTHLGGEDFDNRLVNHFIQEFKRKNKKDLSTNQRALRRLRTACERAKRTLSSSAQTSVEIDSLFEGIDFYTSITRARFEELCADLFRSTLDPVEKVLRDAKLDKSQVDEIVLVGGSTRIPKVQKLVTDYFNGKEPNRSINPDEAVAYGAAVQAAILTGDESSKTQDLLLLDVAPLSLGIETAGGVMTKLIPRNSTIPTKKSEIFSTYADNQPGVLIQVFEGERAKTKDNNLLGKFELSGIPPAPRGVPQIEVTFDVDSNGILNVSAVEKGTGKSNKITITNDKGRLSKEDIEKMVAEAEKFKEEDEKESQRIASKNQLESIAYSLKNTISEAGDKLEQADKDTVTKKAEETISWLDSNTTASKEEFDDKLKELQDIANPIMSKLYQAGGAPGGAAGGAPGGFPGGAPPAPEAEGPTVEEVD
Chain of yeast Hsc70 (Ssa1p) (P03070 whole entry, further chain): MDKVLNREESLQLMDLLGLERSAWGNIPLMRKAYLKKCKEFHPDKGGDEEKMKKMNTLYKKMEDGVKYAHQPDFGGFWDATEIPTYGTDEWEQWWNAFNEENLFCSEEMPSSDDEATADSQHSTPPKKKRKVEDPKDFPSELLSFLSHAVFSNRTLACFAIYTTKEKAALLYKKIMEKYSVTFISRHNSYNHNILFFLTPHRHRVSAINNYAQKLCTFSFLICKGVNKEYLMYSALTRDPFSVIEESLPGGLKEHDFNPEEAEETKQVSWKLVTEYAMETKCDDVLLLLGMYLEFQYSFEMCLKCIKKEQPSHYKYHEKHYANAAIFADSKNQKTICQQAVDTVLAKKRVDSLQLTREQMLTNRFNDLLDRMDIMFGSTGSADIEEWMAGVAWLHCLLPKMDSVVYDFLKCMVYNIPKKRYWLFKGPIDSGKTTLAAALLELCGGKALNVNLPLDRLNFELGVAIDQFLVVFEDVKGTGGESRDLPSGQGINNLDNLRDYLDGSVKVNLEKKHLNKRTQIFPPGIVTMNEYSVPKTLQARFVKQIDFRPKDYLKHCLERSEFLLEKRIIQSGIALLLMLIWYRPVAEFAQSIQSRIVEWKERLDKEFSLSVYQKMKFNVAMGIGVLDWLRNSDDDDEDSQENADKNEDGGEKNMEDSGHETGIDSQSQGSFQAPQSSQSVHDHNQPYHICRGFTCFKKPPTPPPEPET

Compound `CCCCCCCCCCCCC/C=C/[C@@H](O)[C@H](COC1O[C@H](CO)[C@H](O)[C@H](OS(=O)(=O)O)[C@H]1O)NC(=O)CC12CC3CC(CC(C3)C1)C2` (stereo partly shown) [adaSGC] has a Ki of roughly 10 µM.

Reference: publication PMC4375101 (Chemistry & biology, 2009)
